# Test results: patent US9096593B2, “Compounds and methods for kinase modulation, and indications therefor” (Plexxikon Inc., priority 2009, dated 2015)
# Tested on: not listed separately
# Assay: Turbidity assay of relative solubility in aqueous buffers
# Format: physicochemical
# Conditions: pH 1.4 as headed (method: SGF pH 1.5)
# Description: As an indication of relative solubility, the turbidity of compounds in aqueous solutions is assessed. To assess possible compound properties in different physiological compartments, such as stomach, intestine, and blood, a series of aqueous buffers with varying pH is used. Thus each compound is diluted into four different physiologically relevant buffers and solution turbidity is measured by spectrophotometry.
# Compounds are dissolved at a concentration of 25 mM in dimethyl sulfoxide, then serially diluted 1:1 into a 96 well plate, diluting 10 times in pure dimethyl sulfoxide, with the final well of each row a dimethyl sulfoxide blank. In an assay plate, 99 μL of appropriate buffer is added to each well, and 1 μL of each sample dilution is added to the buffer, achieving a range of final total concentrations in aqueous solutions having different pH. The buffers used are Simulated Gastric Fluid (SGF-pH 1.5) 0.5M NaCl, pH 1.5; Simulated Intestinal fluid (SIF-pH 4.5 and pH 6.8) 0.05M NaH2PO4, pH 4.5 and 6.8; and Hepes Buffer (HEPES-pH 7.4) 10 mM HEPES, 150 mM NaCl, pH 7.4. Control compounds pyrene, estriol and propranolol HCl are also assessed. Plates are spun and then mixed for 1 minute, and the absorbance is read using a Tecan Safire II to read wavelengths in the visible range (490, 535, and 650 nm) at four locations per well, reflecting the degree of turbidity present. The average optical density for each wavelength in each well is graphed vs. compound concentration, and the concentration at which the curve crosses a threshold O.D. of 0.01 for each wavelength is reported as the endpoint turbidity assay result. The average of the three wavelengths is used to compare turbidity of compounds. Compounds are considered to have low solubility if the threshold concentration is <31.3 μM, moderate solubility if the threshold concentration is 31.3 μM to 250 μM, and high solubility if the threshold concentration is >250 μM.
row,SMILES,"turbidity threshold (L, M, H) 1.4"
1,"Cc1cc(CNc2ccc(Cc3c[nH]c4ncc(Cl)cc34)c(F)n2)ccn1 [Compound P-2075, [5-(5-Chloro-1H-pyrrolo[2,3-b]pyridin-3-ylmethyl)-6-fluoro-pyridin-2-yl]-(2-methyl-pyridin-4-ylmethyl)-amine]",H (high solubility if the threshold concentration is >250 μM)

# Same assay, conditions: pH 4.5 (SIF)
row,SMILES,"turbidity threshold (L, M, H) 4.5"
1,"Cc1cc(CNc2ccc(Cc3c[nH]c4ncc(Cl)cc34)c(F)n2)ccn1 [Compound P-2075, [5-(5-Chloro-1H-pyrrolo[2,3-b]pyridin-3-ylmethyl)-6-fluoro-pyridin-2-yl]-(2-methyl-pyridin-4-ylmethyl)-amine]",M (moderate solubility if the threshold concentration is 31.3 μM to 250 μM)

# Same assay, conditions: pH 6.8 (SIF)
row,SMILES,"turbidity threshold (L, M, H) 6.8"
1,"Cc1cc(CNc2ccc(Cc3c[nH]c4ncc(Cl)cc34)c(F)n2)ccn1 [Compound P-2075, [5-(5-Chloro-1H-pyrrolo[2,3-b]pyridin-3-ylmethyl)-6-fluoro-pyridin-2-yl]-(2-methyl-pyridin-4-ylmethyl)-amine]",L (low solubility if the threshold concentration is <31.3 μM)

# Same assay, conditions: pH 7.4 (HEPES)
row,SMILES,"turbidity threshold (L, M, H) 7.4"
1,"Cc1cc(CNc2ccc(Cc3c[nH]c4ncc(Cl)cc34)c(F)n2)ccn1 [Compound P-2075, [5-(5-Chloro-1H-pyrrolo[2,3-b]pyridin-3-ylmethyl)-6-fluoro-pyridin-2-yl]-(2-methyl-pyridin-4-ylmethyl)-amine]",M (moderate solubility if the threshold concentration is 31.3 μM to 250 μM)

# Target: BCR-KIT/BaF3 cells (Homo sapiens, UniProt P10721)
# Assay: BCR-KIT/BaF3 cell proliferation assay (ATPlite)
# Format: cell-based
# Conditions: read-out: BCR/BaF3 (IC50 μM) Kit
# Description: Compounds are assessed in a variety of cell based assays. For example BCR-FMS/BaF3, BCR-KIT/BaF3, M-NFS-60, M-07e, and BAC1.2F5 cell proliferation assays are used to assess inhibitory activity of Fms or Kit and MV-4-11 cell proliferation assay is used to assess inhibitory activity in Flt-3. Reagent and assay conditions are as follows: • BCR-FMS/BaF3 and BCR-KIT/BaF3 cells: • Maintained in RPMI containing 10% FBS, 1% PenStrep, 1% NEAA, and 1% L-Glutamine, supplemented with 1 mg/mL G418 and 5% WEHI-CM (or recombinant murine IL-3). • Confluent cells are split 1:50 to 1:100 every 3-4 days. • M-NFS-60 cells (ATCC #CRL-1838): • Maintained in RPMI containing 10% FBS, 1% Hepes, 1% NaPyruvate, and 0.45% Glucose, supplemented with 62 ng/mL murine M-CSF. • Confluent cells are split 1:20 every 3-4 days. • M-07e cells (DSMZ #ACC 104): • Maintained in IMDM containing 10% FBS, supplemented with either 200 ng/mL human SCF or […] SCF (R&D Systems 255-SC). • Confluent cells are split 1:5 to 1:10 every 3-4 days. • BAC1.2F5 cells: • Maintained in Alpha-MEM containing 10% Newborn Calf Serum (Invitrogen #26010-074) supplemented with 36 ng/mL murine M-CSF. • Confluent cells are split 1:4 every 3-4 days. • MV-4-11 cells: • Maintained in Iscove's Modified Dulbecco's Medium containing 10% FBS. • Confluent cells are split 1:4 every 3-4 days. On day 1, cells are counted, then centrifuged in a conical tube for 5 minutes at 1000 rpm. The supernatant is removed and cells are re-suspended as follows: • BCR-FMS/BaF3 and BCR-KIT/BaF3: resuspend in growth media+1 mg/mL G418 (without WEHI/IL-3) to 2×10^5 cells/mL. • M-NFS-60: resuspend in growth media +62 ng/mL murine M-CSF to 5×10^5 cells/mL. • M-07e: resuspend in growth media +200 ng/mL human SCF to 5×10^5 cells/mL. • BAC1.2F5: resuspend in growth media +36 ng/mL murine M-CSF to 1.4×10^5 cells/mL. • MV-4-11: resuspend in growth media +10% FBS to 5×10^5 cells/mL. The cells are plated (50 μL) in each well of a 96-well dish (Corning 3610) and incubated at 37° C. in 5% CO2 overnight, cells plated to a final concentration of cells as follows: • BCR-FMS/BaF3 and BCR-KIT/BaF3: 10,000 cells per well. • M-NFS-60: 25,000 cells per well. • M-07e: 25,000 cells per well. • BAC1.2F5: 7,000 cells per well. • MV-4-11: 25,000 cells per well. On day 2, compound at a maximum concentration of 5 mM is serially diluted 1:3 for a total of 8 point titration with DMSO as a control. A 1 μL aliquot of each dilution point is added to 249 μL growth media and 50 μL is added to a well containing cells, providing 10 μM compound for the maximum concentration point. The cells are incubated for 3 days at 37° C. in 5% CO2. On day 5, ATPlite 1 step Luminescence Assay System (Perkin Elmer #6016739) is brought to room temperature along with the cell cultures. ATPlite is added to each well as follows: • BCR-FMS/BaF3 and BCR-KIT/BaF3: 25 μL per well. • M-NFS-60: 25 μL per well. • M-07c: 40 μL per well. • BAC1.2F5: 50 μL per well. • MV-4-11: 40 μL per well. The cells are incubated at room temperature for 10 minutes, then luminescence is read on Safire reader. The measured luminescence correlates directly with cell number, such that the reading as a function of compound concentration is used to determine the IC50 value.
# BCR-KIT/BaF3 cells, sequence (P10721 26-976 limits assumed, change not shown): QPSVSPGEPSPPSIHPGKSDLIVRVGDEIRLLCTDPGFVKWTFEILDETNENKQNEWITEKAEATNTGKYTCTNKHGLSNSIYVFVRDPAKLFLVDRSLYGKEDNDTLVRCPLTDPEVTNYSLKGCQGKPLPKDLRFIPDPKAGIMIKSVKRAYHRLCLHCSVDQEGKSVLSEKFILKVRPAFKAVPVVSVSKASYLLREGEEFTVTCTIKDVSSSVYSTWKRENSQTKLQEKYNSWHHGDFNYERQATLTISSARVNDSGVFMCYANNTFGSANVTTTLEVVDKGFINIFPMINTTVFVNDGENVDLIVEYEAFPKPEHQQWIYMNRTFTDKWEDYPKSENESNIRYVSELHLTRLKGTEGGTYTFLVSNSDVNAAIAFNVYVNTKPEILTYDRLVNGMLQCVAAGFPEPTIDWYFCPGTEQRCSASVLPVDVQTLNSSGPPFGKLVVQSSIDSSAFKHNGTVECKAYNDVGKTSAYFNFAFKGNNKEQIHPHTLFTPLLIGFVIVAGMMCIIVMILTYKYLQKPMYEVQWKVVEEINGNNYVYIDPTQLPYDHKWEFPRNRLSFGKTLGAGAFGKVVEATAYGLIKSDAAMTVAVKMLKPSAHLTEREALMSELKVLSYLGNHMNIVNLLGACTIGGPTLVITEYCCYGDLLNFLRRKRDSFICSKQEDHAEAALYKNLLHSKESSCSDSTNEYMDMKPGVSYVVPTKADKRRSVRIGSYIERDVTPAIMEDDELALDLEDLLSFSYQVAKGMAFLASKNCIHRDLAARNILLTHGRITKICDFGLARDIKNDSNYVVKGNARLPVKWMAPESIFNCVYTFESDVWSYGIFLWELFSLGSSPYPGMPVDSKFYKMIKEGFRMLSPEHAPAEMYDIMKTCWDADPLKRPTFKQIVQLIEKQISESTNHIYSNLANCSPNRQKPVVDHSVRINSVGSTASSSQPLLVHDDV
row,SMILES,IC50
1,"Fc1cncc(CNc2ncc(Cc3c[nH]c4ncc(Cl)cc34)cn2)c1 [Compound P-2176, [5-(5-Chloro-1H-pyrrolo[2,3-b]pyridin-3-ylmethyl)-pyrimidin-2-yl]-(5-fluoro-pyridin-3-ylmethyl)-amine]",> 0.1 µM
2,"Cc1cnc2[nH]cc(Cc3cnc(NCc4cccc(N5CCOCC5)n4)nc3)c2c1 [Compound P-2081, [5-(5-Methyl-1H-pyrrolo[2,3-b]pyridin-3-ylmethyl)-pyrimidin-2-yl]-(6-morpholin-4-yl-pyridin-2-ylmethyl)-amine]",> 0.1 µM
3,"Fc1ccc(CNc2ncc(Cc3c[nH]c4ncc(Cl)cc34)cn2)cc1F [Compound P-2008, [5-(5-Chloro-1H-pyrrolo[2,3-b]pyridin-3-ylmethyl)-pyrimidin-2-yl]-(3,4-difluoro-benzyl)-amine]",> 0.1 µM
4,"Cc1cnc2[nH]cc(Cc3cnc(NCc4cccc(C)n4)nc3)c2c1 [Compound P-2079, (6-Methyl-pyridin-2-ylmethyl)-[5-(5-methyl-1H-pyrrolo[2,3-b]pyridin-3-ylmethyl)-pyrimidin-2-yl]-amine]",> 0.1 µM
5,"Cc1cnc2[nH]cc(Cc3ccc(NCc4ccnc(F)c4)nc3F)c2c1 [Compound P-2118, [6-Fluoro-5-(5-methyl-1H-pyrrolo[2,3-b]pyridin-3-ylmethyl)-pyridin-2-yl]-(2-fluoro-pyridin-4-ylmethyl)-amine]",> 0.1 µM
6,"Cn1cc(F)cc(CNc2ncc(Cc3c[nH]c4ncc(Cl)cc34)cn2)c1=O [Compound P-2157, 3-{[5-(5-Chloro-1H-pyrrolo[2,3-b]pyridin-3-ylmethyl)-pyrimidin-2-ylamino]-methyl}-5-fluoro-1-methyl-1H-pyridin-2-one]",> 0.1 µM
7,"COc1cccc(CNc2ncc(Cc3c[nH]c4ncc(Cl)cc34)s2)n1 [Compound P-2163, [5-(5-Chloro-1H-pyrrolo[2,3-b]pyridin-3-ylmethyl)-thiazol-2-yl]-(6-methoxy-pyridin-2-ylmethyl)-amine]",> 0.1 µM
8,"COc1cnc2[nH]cc(Cc3cnc(NCc4ccc(C(F)(F)F)nc4)c(F)c3)c2c1 [Compound P-2147, [3-Fluoro-5-(5-methoxy-1H-pyrrolo[2,3-b]pyridin-3-ylmethyl)-pyridin-2-yl]-(6-trifluoromethyl-pyridin-3-ylmethyl)-amine]",< 0.1 µM
9,"Cc1cnc2[nH]cc(Cc3cnc(NCc4ccc(Cl)nc4)nc3)c2c1 [Compound P-2078, (6-Chloro-pyridin-3-ylmethyl)-[5-(5-methyl-1H-pyrrolo[2,3-b]pyridin-3-ylmethyl)-pyrimidin-2-yl]-amine]",> 0.1 µM
10,"Cc1cccc(CNc2ncc(Cc3c[nH]c4ncc(Cl)cc34)cn2)c1 [Compound P-2013, [5-(5-Chloro-1H-pyrrolo[2,3-b]pyridin-3-ylmethyl)-pyrimidin-2-yl]-(3-methyl-benzyl)-amine]",> 0.1 µM
11,"CCS(=O)(=O)Nc1cc(F)cc(CNc2ccc(Cc3c[nH]c4ncc(C)cc34)c(F)n2)c1 [Compound P-2202, Ethanesulfonic acid (3-fluoro-5-{[6-fluoro-5-(5-methyl-1H-pyrrolo[2,3-b]pyridin-3-ylmethyl)-pyridin-2-ylamino]-methyl}-phenyl)-amide]",> 0.1 µM
12,"Cc1cnc2[nH]cc(Cc3cnc(NCc4cccnc4OC4CCCC4)nc3)c2c1 [Compound P-2148, (2-Cyclopentyloxy-pyridin-3-ylmethyl)-[5-(5-methyl-1H-pyrrolo[2,3-b]pyridin-3-ylmethyl)-pyrimidin-2-yl]-amine]",> 0.1 µM
13,"Cc1cnc2[nH]cc(Cc3ccc(NCc4cnccc4C(F)(F)F)nc3)c2c1 [Compound P-2070, [5-(5-Methyl-1H-pyrrolo[2,3-b]pyridin-3-ylmethyl)-pyridin-2-yl]-(4-trifluoromethyl-pyridin-3-ylmethyl)-amine]",> 0.1 µM
14,"COc1ncccc1CNc1ncc(Cc2c[nH]c3ncc(C)cc23)cn1 [Compound P-2139, (2-Methoxy-pyridin-3-ylmethyl)-[5-(5-methyl-1H-pyrrolo[2,3-b]pyridin-3-ylmethyl)-pyrimidin-2-yl]-amine]",> 0.1 µM
15,"Cc1cnc2[nH]cc(Cc3ccc(NCc4cccnc4F)nc3F)c2c1 [Compound P-2103, [6-Fluoro-5-(5-methyl-1H-pyrrolo[2,3-b]pyridin-3-ylmethyl)-pyridin-2-yl]-(2-fluoro-pyridin-3-ylmethyl)-amine]",> 0.1 µM
16,"Cc1cnc2[nH]cc(Cc3ccc(NCc4ccc(Cl)nc4)nc3F)c2c1 [Compound P-2088, (6-Chloro-pyridin-3-ylmethyl)-[6-fluoro-5-(5-methyl-1H-pyrrolo[2,3-b]pyridin-3-ylmethyl)-pyridin-2-yl]-amine]",> 0.1 µM
17,"COc1ccc(CNc2ncc(Cc3c[nH]c4ncc(Cl)cc34)s2)cn1 [Compound P-2154, [5-(5-Chloro-1H-pyrrolo[2,3-b]pyridin-3-ylmethyl)-thiazol-2-yl]-(6-methoxy-pyridin-3-ylmethyl)-amine]",> 0.1 µM
18,"COc1cnc2[nH]cc(Cc3ccc(NCc4cccnc4OC)nc3F)c2c1 [Compound P-2043, [6-Fluoro-5-(5-methoxy-1H-pyrrolo[2,3-b]pyridin-3-ylmethyl)-pyridin-2-yl]-(2-methoxy-pyridin-3-ylmethyl)-amine]",> 0.1 µM
19,"Cc1cnc2[nH]cc(Cc3cnc(NCc4cccc(N5CCCC5)n4)nc3)c2c1 [Compound P-2082, [5-(5-Methyl-1H-pyrrolo[2,3-b]pyridin-3-ylmethyl)-pyrimidin-2-yl]-(6-pyrrolidin-1-yl-pyridin-2-ylmethyl)-amine]",> 0.1 µM
